Test results reported in PubChem BioAssay (NCI).
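How tested: cells in 96-well plates exposed to compound for 48 hours at five concentrations. TGI denotes the concentration required for complete inhibition of growth.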

How the values were obtained:
Assay in all cases: NCI anticancer screen, dose series, 48 h
SK-OV-3 ovarian = tested on: SK-OV-3 ovarian
HCC-2998 colon = tested on: HCC-2998 colon
SNB-75 CNS = tested on: SNB-75 CNS
MDA-MB-435 = tested on: MDA-MB-435
MCF7 breast = tested on: MCF7 breast
NCI/ADR-RES ovarian = tested on: NCI/ADR-RES ovarian
EKVX NSCLC = tested on: EKVX NSCLC
HL-60(TB) leukemia = tested on: HL-60(TB) leukemia
ACHN renal = tested on: ACHN renal
786-0 renal = tested on: 786-0 renal
OVCAR-8 ovarian = tested on: OVCAR-8 ovarian
SK-MEL-5 melanoma = tested on: SK-MEL-5 melanoma
NCI-H460 lung = tested on: NCI-H460 lung
DU-145 prostate = tested on: DU-145 prostate
SNB-19 CNS = tested on: SNB-19 CNS
MDA-MB-231 breast = tested on: MDA-MB-231 breast
RXF 393 renal = tested on: RXF 393 renal
TK-10 renal = tested on: TK-10 renal
HCT-15 colon = tested on: HCT-15 colon
SK-MEL-28 melanoma = tested on: SK-MEL-28 melanoma
MALME-3M melanoma = tested on: MALME-3M melanoma
SW-620 colon = tested on: SW-620 colon
KM12 colon = tested on: KM12 colon
HOP-62 NSCLC = tested on: HOP-62 NSCLC
SN12C renal = tested on: SN12C renal
SF-295 CNS = tested on: SF-295 CNS
LOX IMVI melanoma = tested on: LOX IMVI melanoma
M14 melanoma = tested on: M14 melanoma
BT-549 breast = tested on: BT-549 breast
HCT-116 colon = tested on: HCT-116 colon
RPMI-8226 leukemia = tested on: RPMI-8226 leukemia
A549 NSCLC = tested on: A549 NSCLC
UO-31 renal = tested on: UO-31 renal
CAKI-1 renal = tested on: CAKI-1 renal
K-562 leukemia = tested on: K-562 leukemia
OVCAR-4 ovarian = tested on: OVCAR-4 ovarian
U251 CNS = tested on: U251 CNS
COLO 205 colon = tested on: COLO 205 colon
HT29 colon = tested on: HT29 colon
IGROV1 ovarian = tested on: IGROV1 ovarian
A498 renal = tested on: A498 renal
SF-539 CNS = tested on: SF-539 CNS
CCRF-CEM leukemia = tested on: CCRF-CEM leukemia
HS 578T breast = tested on: HS 578T breast
NCI-H226 lung = tested on: NCI-H226 lung
PC-3 prostate = tested on: PC-3 prostate
SF-268 CNS = tested on: SF-268 CNS
MOLT-4 leukemia = tested on: MOLT-4 leukemia
UACC-257 melanoma = tested on: UACC-257 melanoma
OVCAR-3 ovarian = tested on: OVCAR-3 ovarian
SR leukemia = tested on: SR leukemia
NCI-H23 lung = tested on: NCI-H23 lung
OVCAR-5 ovarian = tested on: OVCAR-5 ovarian

## COc1ccc(C2C3=C(COC3=O)Oc3cc4c(cc32)OCO4)c(OC)c1 (stereo not drawn)
SK-OV-3 ovarian
  TGI: 93.1 µM
HCC-2998 colon
  TGI: > 100 µM
SNB-75 CNS
  TGI: 46.8 µM
MDA-MB-435
  TGI: 5.49 µM
MCF7 breast
  TGI: > 100 µM
NCI/ADR-RES ovarian
  TGI: > 100 µM
EKVX NSCLC
  TGI: > 100 µM
HL-60(TB) leukemia
  TGI: 39.9 µM
ACHN renal
  TGI: > 100 µM
786-0 renal
  TGI: > 100 µM
OVCAR-8 ovarian
  TGI: > 100 µM
SK-MEL-5 melanoma
  TGI: > 100 µM
NCI-H460 lung
  TGI: > 100 µM
DU-145 prostate
  TGI: > 100 µM
SNB-19 CNS
  TGI: > 100 µM
MDA-MB-231 breast
  TGI: > 100 µM
RXF 393 renal
  TGI: 51 µM
TK-10 renal
  TGI: > 100 µM
HCT-15 colon
  TGI: > 100 µM
SK-MEL-28 melanoma
  TGI: > 100 µM
MALME-3M melanoma
  TGI: > 100 µM
SW-620 colon
  TGI: > 100 µM
KM12 colon
  TGI: > 100 µM
HOP-62 NSCLC
  TGI: > 100 µM
SN12C renal
  TGI: > 100 µM
SF-295 CNS
  TGI: 29.8 µM
LOX IMVI melanoma
  TGI: > 100 µM
M14 melanoma
  TGI: > 100 µM
BT-549 breast
  TGI: > 100 µM
HCT-116 colon
  TGI: > 100 µM
RPMI-8226 leukemia
  TGI: > 100 µM
A549 NSCLC
  TGI: > 100 µM
UO-31 renal
  TGI: > 100 µM
CAKI-1 renal
  TGI: > 100 µM
K-562 leukemia
  TGI: 87.3 µM
OVCAR-4 ovarian
  TGI: > 100 µM
U251 CNS
  TGI: > 100 µM
COLO 205 colon
  TGI: > 100 µM
HT29 colon
  TGI: > 100 µM
IGROV1 ovarian
  TGI: > 100 µM
A498 renal
  TGI: > 100 µM
SF-539 CNS
  TGI: 43.6 µM
CCRF-CEM leukemia
  TGI: > 100 µM
HS 578T breast
  TGI: 98.3 µM
NCI-H226 lung
  TGI: > 100 µM
PC-3 prostate
  TGI: > 100 µM
SF-268 CNS
  TGI: > 100 µM
MOLT-4 leukemia
  TGI: > 100 µM
UACC-257 melanoma
  TGI: > 100 µM
OVCAR-3 ovarian
  TGI: 58.7 µM
SR leukemia
  TGI: > 100 µM
NCI-H23 lung
  TGI: > 100 µM
OVCAR-5 ovarian
  TGI: > 100 µM
